Values of other authors, collected in publication PMC9800952 (Asian Journal of Pharmaceutical Sciences, 2022).

Conditions: pH 7

For CC(C)OC(=O)CCC/C=C\C[C@@H]1[C@@H](CC[C@@H](O)CCc2ccccc2)[C@H](O)C[C@@H]1O [latanoprost], the “LogD (pH7)” value is listed as 4.28.
